Results: patent US6914045B2, “Glycopeptide antibiotics” (Wyeth Holdings Corporation, priority 2001, dated 2005)
Converted amounts (≈) assume the structure as drawn.

Legend:
Assay in all cases: in vitro antibacterial evaluation, MIC by broth dilution
Format in all cases: cell-based
Enterococcus sp. = settings: broth dilution, 18 hours at 35° C.; for MIC Enterococcus faecalis (ATCC 29212): strain ATCC 29212; for MIC Enterococcus faecalis (GC 2242): strain GC 2242; for MIC Enterococcus faecium (GC 2243): strain GC 2243; for MIC Enterococcus faecalis (GC 2691): strain GC 2691; for MIC Enterococcus faecalis (GC 3059): strain GC 3059; for MIC Enterococcus faecalis (GC 4552): strain GC 4552; for MIC Enterococcus faecalis (GC 4553): strain GC 4553; for MIC Enterococcus faecalis (GC 4554): strain GC 4554; for MIC Enterococcus faecium (GC 4556): strain GC 4556; for MIC Enterococcus faecium (GC 4557): strain GC 4557; for MIC Enterococcus avium (GC 4558): strain GC 4558; for MIC Enterococcus faecalis (GC 6189): strain GC 6189
In short: (§1)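 Step 1: dilute antibiotic across 64-0.06 μg/mL in Muller-Hinton II […]. Step 2: inoculate at 5×10^5 CFU/mL.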

Staphylococcus sp. = settings: broth dilution, 18 hours at 35° C.; for MIC Staphylococcus aureus (GC 1131): strain GC 1131
In short: as §1

Escherichia coli = system: Escherichia coli
In short: as §1

Streptococcus sp. = settings: broth dilution, 18 hours at 35° C.; for MIC Streptococcus pneumoniae (ATCC 6301): strain ATCC 6301; for MIC Streptococcus pneumoniae (GC 1894): strain GC 1894; for MIC Streptococcus pyogenes (GC 4563): strain GC 4563; for MIC Streptococcus agalactiae (GC 4564): strain GC 4564; for MIC Streptococcus pneumoniae (GC 4565): strain GC 4565
In short: as §1

- MIC Enterococcus faecalis (ATCC 29212) (Enterococcus sp.; inoculum 5×10^5 CFU/mL): 8 µg/mL (≈ 5.46 µM)
- MIC Enterococcus faecalis (GC 2242) (Enterococcus sp.; inoculum 5×10^5 CFU/mL): 4 µg/mL (≈ 2.73 µM)
- MIC Enterococcus faecium (GC 2243) (Enterococcus sp.; inoculum 5×10^5 CFU/mL): 8 µg/mL (≈ 5.46 µM)
- MIC Enterococcus faecalis (GC 2691) (Enterococcus sp.; inoculum 5×10^5 CFU/mL): 8 µg/mL (≈ 5.46 µM)
- MIC Enterococcus faecalis (GC 3059) (Enterococcus sp.; inoculum 5×10^5 CFU/mL): 8 µg/mL (≈ 5.46 µM)
- MIC Enterococcus faecalis (GC 4552) (Enterococcus sp.; inoculum 5×10^5 CFU/mL): 8 µg/mL (≈ 5.46 µM)
- MIC Enterococcus faecalis (GC 4553) (Enterococcus sp.; inoculum 5×10^5 CFU/mL): 8 µg/mL (≈ 5.46 µM)
- MIC Enterococcus faecalis (GC 4554) (Enterococcus sp.; inoculum 5×10^5 CFU/mL): 16 µg/mL (≈ 10.9 µM)
- MIC Enterococcus faecium (GC 4556) (Enterococcus sp.; inoculum 5×10^5 CFU/mL): 8 µg/mL (≈ 5.46 µM)
- MIC Enterococcus faecium (GC 4557) (Enterococcus sp.; inoculum 5×10^5 CFU/mL): 4 µg/mL (≈ 2.73 µM)
- MIC Enterococcus avium (GC 4558) (Enterococcus sp.; inoculum 5×10^5 CFU/mL): 8 µg/mL (≈ 5.46 µM)
- MIC Enterococcus faecalis (GC 6189) (Enterococcus sp.; inoculum 5×10^5 CFU/mL): 4 µg/mL (≈ 2.73 µM)
- MIC Enterococcus faecalis (ATCC 29212) (Enterococcus sp.): 8 µg/mL (≈ 5.46 µM)
- MIC Enterococcus faecalis (GC 2242) (Enterococcus sp.): 4 µg/mL (≈ 2.73 µM)
- MIC Enterococcus faecium (GC 2243) (Enterococcus sp.): 8 µg/mL (≈ 5.46 µM)
- MIC Enterococcus faecalis (GC 2691) (Enterococcus sp.): 8 µg/mL (≈ 5.46 µM)
- MIC Enterococcus faecalis (GC 3059) (Enterococcus sp.): 8 µg/mL (≈ 5.46 µM)
- MIC Enterococcus faecalis (GC 4552) (Enterococcus sp.): 8 µg/mL (≈ 5.46 µM)
- MIC Enterococcus faecalis (GC 4553) (Enterococcus sp.): 8 µg/mL (≈ 5.46 µM)
- MIC Enterococcus faecalis (GC 4554) (Enterococcus sp.): 16 µg/mL (≈ 10.9 µM)
- MIC Enterococcus faecium (GC 4556) (Enterococcus sp.): 8 µg/mL (≈ 5.46 µM)
- MIC Enterococcus faecium (GC 4557) (Enterococcus sp.): 4 µg/mL (≈ 2.73 µM)
- MIC Enterococcus avium (GC 4558) (Enterococcus sp.): 8 µg/mL (≈ 5.46 µM)
- MIC Enterococcus faecalis (GC 6189) (Enterococcus sp.): 4 µg/mL (≈ 2.73 µM)
- MIC Staphylococcus aureus (GC 1131) (Staphylococcus sp.; inoculum 5×10^5 CFU/mL): 4 µg/mL (≈ 2.73 µM)
- MIC Staphylococcus aureus (ATCC 29213) (Staphylococcus sp.; strain ATCC 29213): 8 µg/mL (≈ 5.46 µM)
- MIC Staphylococcus aureus (GC 1131) (Staphylococcus sp.): 4 µg/mL (≈ 2.73 µM)
- MIC Staphylococcus aureus (GC 3051) (Staphylococcus sp.; strain GC 3051): 16 µg/mL (≈ 10.9 µM)
- MIC Staphylococcus aureus (GC 3053) (Staphylococcus sp.; strain GC 3053): 8 µg/mL (≈ 5.46 µM)
- MIC Staphylococcus aureus (GC 4541) (Staphylococcus sp.; strain GC 4541): 8 µg/mL (≈ 5.46 µM)
- MIC Staphylococcus aureus (GC 4542) (Staphylococcus sp.; strain GC 4542): 16 µg/mL (≈ 10.9 µM)
- MIC Staphylococcus aureus-SMITH (GC 4543) (Staphylococcus sp.; strain GC 4543): 4 µg/mL (≈ 2.73 µM)
- MIC Staphylococcus aureus (GC 4544) (Staphylococcus sp.; strain GC 4544): 8 µg/mL (≈ 5.46 µM)
- MIC Staphylococcus aureus (GC 4545) (Staphylococcus sp.; strain GC 4545): 4 µg/mL (≈ 2.73 µM)
- MIC Coagulase Negative Staphylococcus (GC 4547) (Staphylococcus sp.; strain GC 4547): 4 µg/mL (≈ 2.73 µM)
- MIC Coagulase Negative Staphylococcus (GC 4548) (Staphylococcus sp.; strain GC 4548): 1 µg/mL (≈ 0.682 µM)
- MIC Coagulase Negative Staphylococcus (GC 4549) (Staphylococcus sp.; strain GC 4549): 0.5 µg/mL (≈ 0.341 µM)
- MIC Coagulase Negative Staphylococcus (GC 4551) (Staphylococcus sp.; strain GC 4551): 4 µg/mL (≈ 2.73 µM)
- MIC Coagulase Negative Staphylococcus (GC 6257) (Staphylococcus sp.; strain GC 6257): 1 µg/mL (≈ 0.682 µM)
- MIC Staphylococcus aureus-SMITH (GC 4543) (Staphylococcus sp.; strain SMITH GC 4543): 4 µg/mL (≈ 2.73 µM)
- MIC Escherichia coli (ATCC 25922) (Escherichia coli; strain ATCC 25922, 18 hours at 35° C.): >64 µg/mL
- MIC Escherichia coli (GC 4559) (Escherichia coli; strain GC 4559, 18 hours at 35° C.): 64 µg/mL (≈ 43.7 µM)
- MIC Escherichia coli (GC 4560) (Escherichia coli; strain GC 4560, 18 hours at 35° C.): 4 µg/mL (≈ 2.73 µM)
- MIC Streptococcus pneumoniae (ATCC 6301) (Streptococcus sp.; inoculum 5×10^5 CFU/mL): <0.06 µg/mL
- MIC Streptococcus pneumoniae (GC 1894) (Streptococcus sp.; inoculum 5×10^5 CFU/mL): <0.06 µg/mL
- MIC Streptococcus pyogenes (GC 4563) (Streptococcus sp.; inoculum 5×10^5 CFU/mL): 0.12 µg/mL (≈ 0.0819 µM)
- MIC Streptococcus agalactiae (GC 4564) (Streptococcus sp.; inoculum 5×10^5 CFU/mL): 0.12 µg/mL (≈ 0.0819 µM)
- MIC Streptococcus pneumoniae (GC 4565) (Streptococcus sp.; inoculum 5×10^5 CFU/mL): <0.06 µg/mL
- MIC Streptococcus pneumoniae (ATCC 6301) (Streptococcus sp.): <0.06 µg/mL
- MIC Streptococcus pneumoniae (GC 1894) (Streptococcus sp.): <0.06 µg/mL
- MIC Streptococcus pyogenes (GC 4563) (Streptococcus sp.): 0.12 µg/mL (≈ 0.0819 µM)
- MIC Streptococcus agalactiae (GC 4564) (Streptococcus sp.): 0.12 µg/mL (≈ 0.0819 µM)
- MIC Streptococcus pneumoniae (GC 4565) (Streptococcus sp.): <0.06 µg/mL
SMILES: CC(c1ccccc1)C1NC(=O)CNC(=O)C(CO)NC(=O)C(C(O)C2CNC(=N)N2C2OC(CO)C(O)C(O)C2O)NC(=O)C(C(O)C2CNC(=N)N2)NC(=O)C(Cc2ccc(OC3OC(CO)C(OC4OC5COC(c6ccc(-c7ccsc7)cc6)OC5C(O)C4O)C(O)C3O)cc2)NC1=O (stereo not drawn) [Example 164]
- MIC Staphylococcus haemolyticus (GC 4546) (Staphylococcus sp.; strain GC 4546): 4 µg/mL (≈ 2.73 µM)
